Experimental data reported in patent US4231958A, “Ureylene phenylene anionic naphthalenesulfonic acids” (American Cyanamid Company, priority 1979, dated 1980).
Structures can show the parent of a compound that is named as a salt.

Legend:
[1] = test system: late components of human complement (C3-C9); assay: Test Code 035 (C3-C9 inhibitor), lysis of EAC 142; format: biochemical; conditions: serial twofold dilution assay; higher well number indicates higher activity
Text: (§1) An active inhibitor protects C2 from C1 and C4; (ii) Test Code 035 (C3-C9 inhibitor)--This test determines the ability of the late components of human complement (C3-C9) to lyse EAC 142 in the presence of appropriate dilutions of the test compound. An active inhibitor protects EAC 142 from lysis by human C3-C9; (iii) Test Code 036 (C-Shunt inhibitor)--In this test human erythrocytes rendered fragile are lysed in autologous serum via the shunt pathway activated by cobra venom factor in the presence of appropriate dilutions of the test compound. Inhibition of the shunt pathway results in failure of lysis; (iv) Forssman Vasculitis Test--Here, the well known complement dependent lesion, Forssman vasculitis, is produced in guinea pigs by intradermal injection of rabbit anti-Forssman antiserum. The lesion is measured in terms of diameter, edema and hemorrhage and the extent to which a combined index of these is inhibited by prior intraperitoneal injection of the test compound at 200 mg/kg is then reported, unless otherwise stated; (v) Forssman Shock Test--Lethal shock is produced in guinea pigs by an i.v. injection of anti-Forssman antiserum and the harmonic mean death time of treated guinea pigs is compared with that of simultaneous controls; (vi) Complement Level Reduction Test--In this test, the above dosed guinea pigs, or others, are bled for serum and the complement level is determined in undiluted serum by the capillary tube method of U.S. Pat. No. 3,876,376 and compared to undosed control guinea pigs; and (vii) Cap 50 Test--Here, appropriate amounts of the test compound are added to a pool of guinea pig serum in vitro, after which the undiluted serum capillary tube assay referred to above is run. The concentration of compound inhibiting 50% is reported.

[2] = test system: shunt pathway activated by cobra venom factor; assay: Test Code 036 (C-Shunt inhibitor), lysis of human erythrocytes in autologous serum, cobra venom factor; format: cell-based; conditions: serial twofold dilution assay; higher well number indicates higher activity
Text: as §1

[3] = molecular target: T1, activated human C1 (Homo sapiens, UniProt P09871); assay: Test Code 026 (C1-inhibitor); format: biochemical; conditions: serial twofold dilution assay; higher well number indicates higher activity
T1 construct: cleavage of fluid-phase human C2 in presence of C4
T1 sequence (P09871 16-688): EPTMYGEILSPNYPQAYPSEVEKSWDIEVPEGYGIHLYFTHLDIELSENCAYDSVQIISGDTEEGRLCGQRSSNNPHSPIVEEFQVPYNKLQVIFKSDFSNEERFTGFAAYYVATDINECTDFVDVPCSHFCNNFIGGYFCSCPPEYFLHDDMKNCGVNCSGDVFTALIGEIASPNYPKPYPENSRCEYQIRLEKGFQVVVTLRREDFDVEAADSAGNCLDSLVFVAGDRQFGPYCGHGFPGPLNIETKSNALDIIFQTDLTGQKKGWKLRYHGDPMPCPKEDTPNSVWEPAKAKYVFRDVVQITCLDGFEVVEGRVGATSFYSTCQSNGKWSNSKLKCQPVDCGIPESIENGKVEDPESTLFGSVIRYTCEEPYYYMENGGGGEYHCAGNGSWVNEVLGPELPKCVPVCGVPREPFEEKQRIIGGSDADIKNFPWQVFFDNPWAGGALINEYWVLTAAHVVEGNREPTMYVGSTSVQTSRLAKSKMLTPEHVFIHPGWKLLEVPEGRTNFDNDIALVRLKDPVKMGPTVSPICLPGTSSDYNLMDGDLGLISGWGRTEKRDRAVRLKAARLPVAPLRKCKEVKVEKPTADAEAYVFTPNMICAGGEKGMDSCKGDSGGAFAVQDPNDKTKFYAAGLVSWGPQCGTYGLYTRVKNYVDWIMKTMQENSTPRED
T1 sequence (P00736 18-705 partner): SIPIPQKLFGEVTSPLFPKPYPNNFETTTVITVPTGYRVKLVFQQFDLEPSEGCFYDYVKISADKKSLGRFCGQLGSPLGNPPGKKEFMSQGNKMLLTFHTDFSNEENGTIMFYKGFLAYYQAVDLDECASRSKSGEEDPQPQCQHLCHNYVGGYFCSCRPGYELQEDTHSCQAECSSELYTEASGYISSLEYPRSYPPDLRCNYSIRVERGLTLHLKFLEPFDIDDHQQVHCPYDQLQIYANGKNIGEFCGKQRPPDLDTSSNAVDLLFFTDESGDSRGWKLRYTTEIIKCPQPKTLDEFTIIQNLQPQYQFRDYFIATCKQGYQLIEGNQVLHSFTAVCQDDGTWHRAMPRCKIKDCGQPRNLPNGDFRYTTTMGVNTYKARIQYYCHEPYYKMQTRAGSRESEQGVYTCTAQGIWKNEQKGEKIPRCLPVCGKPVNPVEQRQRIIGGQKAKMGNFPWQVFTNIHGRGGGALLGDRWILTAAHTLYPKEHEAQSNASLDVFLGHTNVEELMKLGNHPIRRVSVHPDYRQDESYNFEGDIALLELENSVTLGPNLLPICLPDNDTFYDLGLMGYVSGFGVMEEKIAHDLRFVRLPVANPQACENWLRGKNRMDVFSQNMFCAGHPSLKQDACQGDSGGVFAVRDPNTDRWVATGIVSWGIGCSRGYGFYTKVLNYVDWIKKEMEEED
T1 sequence (P02745 23-245 partner): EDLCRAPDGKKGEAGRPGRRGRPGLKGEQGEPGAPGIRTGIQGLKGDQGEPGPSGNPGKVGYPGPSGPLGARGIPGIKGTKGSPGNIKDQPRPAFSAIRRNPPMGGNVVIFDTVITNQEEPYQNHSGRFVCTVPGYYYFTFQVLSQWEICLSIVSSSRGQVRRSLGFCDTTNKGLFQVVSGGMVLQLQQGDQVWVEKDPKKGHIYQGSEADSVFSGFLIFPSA
T1 sequence (P02746 28-253 partner): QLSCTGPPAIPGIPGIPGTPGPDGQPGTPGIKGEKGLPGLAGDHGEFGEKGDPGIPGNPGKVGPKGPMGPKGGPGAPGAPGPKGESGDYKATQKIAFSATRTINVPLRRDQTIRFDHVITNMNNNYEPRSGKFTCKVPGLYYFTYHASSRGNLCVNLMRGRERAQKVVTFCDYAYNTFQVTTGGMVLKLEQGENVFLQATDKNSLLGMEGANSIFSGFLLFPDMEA
T1 sequence (P02747 29-245 partner): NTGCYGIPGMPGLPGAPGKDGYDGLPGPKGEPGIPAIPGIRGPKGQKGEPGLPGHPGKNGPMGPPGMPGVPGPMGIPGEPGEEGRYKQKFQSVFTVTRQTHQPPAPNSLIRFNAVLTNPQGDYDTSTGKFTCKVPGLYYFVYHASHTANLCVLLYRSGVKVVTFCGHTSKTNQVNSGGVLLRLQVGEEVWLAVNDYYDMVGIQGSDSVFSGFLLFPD
Text: as §1

[4] = test system: complement system; conditions: known from the literature; cited from earlier work

Row | Compound | C-Late 035* Wells [1] | Shunt Inhibition 036* Wells [2] | Cl 026* Wells [3] | activity as a complement inhibitor [4]
1 | Cc1ccc(S(=O)(=O)Nc2ccc(S(=O)(=O)O)c3cc(S(=O)(=O)O)cc(S(=O)(=O)O)c23)cc1NS(=O)(=O)c1cccc(NC(=O)Nc2cccc(S(=O)(=O)Nc3cc(S(=O)(=O)Nc4ccc(S(=O)(=O)O)c5cc(S(=O)(=O)O)cc(S(=O)(=O)O)c45)ccc3C)c2)c1 [8,8'-[Ureylenebis[(m-phenylenesulfonylimino) (4-methyl-3,1-phenylenesulfonyl)imino]]di-1,3,5-naphthalenetrisulfonic acid, hexasodium salt] | +1 Wells | N | +3 Wells | 
2 | O=C(Nc1cccc(S(=O)(=O)Nc2cccc(S(=O)(=O)Nc3cc(S(=O)(=O)O)cc4cc(S(=O)(=O)O)cc(S(=O)(=O)O)c34)c2)c1)Nc1cccc(S(=O)(=O)Nc2cccc(S(=O)(=O)Nc3cc(S(=O)(=O)O)cc4cc(S(=O)(=O)O)cc(S(=O)(=O)O)c34)c2)c1 [8,8'-[Ureylenebis[[(1,3-phenylenesulfonylimino)-1,3-phenylenesulfonyl]imino]]di-1,3,6-naphthalenetrisulfonic acid, hexasodium salt] | +5 Wells | +1 Wells | +4 Wells | 
3 | Cc1ccc(NC(=O)Nc2ccc(C)c(S(=O)(=O)Nc3ccc(C)c(S(=O)(=O)Nc4cc(S(=O)(=O)[O-])cc5cc(S(=O)(=O)[O-])cc(S(=O)(=O)[O-])c45)c3)c2)cc1S(=O)(=O)Nc1ccc(C)c(S(=O)(=O)Nc2cc(S(=O)(=O)[O-])cc3cc(S(=O)(=O)[O-])cc(S(=O)(=O)[O-])c23)c1.[Na+].[Na+].[Na+].[Na+].[Na+].[Na+] [8,8'-[Ureylenebis[[[(6-methyl-3,1-phenylene)sulfonyl]imino]-[[(6-methyl-3,1-phenylene)sulfonyl]imino]]]di-1,3,6-naphthalenetrisulfonic acid, hexasodium salt] | +1 Wells | N | +3 Wells | 
4 | Cc1ccc(C(=O)Nc2ccc(S(=O)(=O)O)c3cc(S(=O)(=O)O)cc(S(=O)(=O)O)c23)cc1NC(=O)c1cccc(NC(=O)Nc2cccc(C(=O)Nc3cc(C(=O)Nc4ccc(S(=O)(=O)O)c5cc(S(=O)(=O)O)cc(S(=O)(=O)O)c45)ccc3C)c2)c1 [Suramin, reference compound] | +2 Wells |  | +4 Wells | moderately active
